The values below come from patent publication US20250051375A1, “ANTI-HIV COMPOUNDS” (Gilead Sciences, Inc., priority 2023, published 2025).

Data set [1] deals with HIV-1 IIIB strain. The data set is described as follows: MT-4 HIV Wild Type Virus Infection Assay (IIIB Virus). The class given is cell-based. To be noted: Human immunodeficiency virus 1, IIIB, MT4, 120 h, MT-4 cells acutely infected with HIV-1 IIIB, 5 day incubation, Cell-titer glo. The procedure, abridged:
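MT-4 cells at 2×10^6 cells/ml in RPMI/10% FBS were acutely infected with HIV-1 IIIB for 1 h at 37° C, diluted 25× and added to serially diluted compounds. After 5 days at 37° C, viability read by CellTiter-Glo luminescence; EC50 from dose-response curves.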

Data set [2] addresses bovine intestinal alkaline phosphatase (Bos taurus (Bovine), UniProt P19111). Description: BiALP: conversion by bovine intestinal alkaline phosphatase. It counts as in vitro ADME. To be noted: 2 μM substrate, 100 ng/mL iALP, Tris pH 7.8, 37° C., 60 minutes. The procedure, abridged:
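LC-MS (positive mode) quantified analyte/internal-standard peak area ratios, referenced to 2 μM parent product. This followed a 60 min, 37° C reaction of 2 μM substrate in Tris buffer pH 7.8 (1 mM MgCl2, 1 mM ZnCl2) containing 100 ng/mL iALP or buffer alone, run in triplicate.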

Data set [3] in a line: PBS Stability Assay. The class given is physicochemical. To be noted: buffer, pH 7.4, 2 μM, phosphate buffered saline pH 7.4; read-out: PBS T½. The procedure, abridged:
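Half-life derives from first-order exponential decline of % compound remaining, quantified by LC-MS analyte/internal-standard peak-area ratio. Compound (2 μM final) sat in pH 7.4 phosphate-buffered saline, with aliquots quenched into acidified acetonitrile containing labetalol from 0 to 120 min.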

The nature of data set [4]: Solubility in FaSSIF. Conditions: 23 °C, pH 6.5, fassif, thermodynamic from solid. The procedure, abridged: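 Concentration measured by HPLC-UV after solid compound was dosed at 5 mg/mL into pH 6.5 fasted-state simulated intestinal fluid containing taurocholate and lecithin (4:1 molar) and vortexed.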

pEC50: −log10 of the molar value. ≈ marks a conversion by molar mass, not a printed value.

Chain of bovine intestinal alkaline phosphatase (P19111 20-506): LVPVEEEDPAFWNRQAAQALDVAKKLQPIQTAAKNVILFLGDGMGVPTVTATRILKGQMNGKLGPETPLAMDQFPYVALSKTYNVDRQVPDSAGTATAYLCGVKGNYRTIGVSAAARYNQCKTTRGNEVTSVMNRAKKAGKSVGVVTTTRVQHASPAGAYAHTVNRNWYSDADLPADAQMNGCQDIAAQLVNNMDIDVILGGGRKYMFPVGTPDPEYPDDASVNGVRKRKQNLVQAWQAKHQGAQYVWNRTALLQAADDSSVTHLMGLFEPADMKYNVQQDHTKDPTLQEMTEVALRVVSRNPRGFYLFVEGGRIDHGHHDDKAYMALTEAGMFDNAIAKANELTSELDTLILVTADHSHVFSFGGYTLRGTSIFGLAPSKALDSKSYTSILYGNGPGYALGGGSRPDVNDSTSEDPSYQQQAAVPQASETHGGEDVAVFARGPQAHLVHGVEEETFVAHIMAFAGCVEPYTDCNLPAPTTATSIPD

For orientation: pEC50 means the EC50 on a negative log10 scale, so that one unit is a factor of ten. Low values mean a large EC50, high ones a small EC50. In general, solubility refers to the dissolved amount per volume that the medium holds. Read a high solubility as a readily soluble substance. The compound `CC[C@H](C)[C@H](NC(=O)Cc1cc(C)cc(OP(=O)(O)O)c1C(C)(C)CC(=O)O[C@@H](CN(Cc1c(F)cc(-c2ccn(C(F)F)n2)cc1F)NC(=O)[C@@H](NC(=O)OC)C(C)(C)C(F)(F)F)[C@H](Cc1ccc(C#Cc2cnc(N3CC4CCC(C3)N4C3COC3)nc2)cc1)NC(=O)[C@@H](NC(=O)OC)C(C)(C)C(F)(F)F)C(=O)O` [Example 96] gave a pEC50 in data set [1] of 6.25. Also, the “[Compound]” value in data set [2] came to 2114.6 nM. Further, the half-life at 2 μM in data set [3] turned out to be 260 min. The concentration in solution in data set [4] (solubility at 2 h) was 1840 µg/mL (≈ 1150 µM).
On the same counts, the results for `COC(=O)N[C@H](C(=O)N[C@@H](Cc1ccc(C#Cc2cnc(N3CC4CCC(C3)N4C3COC3)nc2)cc1)[C@H](CN(Cc1c(F)cc(-c2ccn(C(F)F)n2)cc1F)NC(=O)[C@@H](NC(=O)OC)C(C)(C)C(F)(F)F)OC(=O)CC(C)(C)c1c(CC(=O)N(C)[C@@H](C)C(=O)O)cc(C)cc1OP(=O)(O)O)C(C)(C)C(F)(F)F` [Example 97] are 6.69, 1772.9 nM, 279 min and 4660 µg/mL (≈ 2970 µM).
The like results for `COC(=O)N[C@H](C(=O)N[C@@H](Cc1ccc(C#Cc2cnc(N3CC4CCC(C3)N4C3COC3)nc2)cc1)[C@H](CN(Cc1c(F)cc(-c2ccn(C(F)F)n2)cc1F)NC(=O)[C@@H](NC(=O)OC)C(C)(C)C(F)(F)F)OC(=O)CC(C)(C)c1c(CC(=O)N[C@@H](C)C(=O)O)cc(C)cc1OP(=O)(O)O)C(C)(C)C(F)(F)F` [Example 98] were, in that order, 7.19, 1320.1 nM, 388 min and 4280 µg/mL (≈ 2750 µM).
On the same counts, the results for `COC(=O)N[C@H](C(=O)N[C@@H](Cc1ccc(C#Cc2cnc(N3CC4CCC(C3)N4C3COC3)nc2)cc1)[C@H](CN(Cc1c(F)cc(-c2ccn(C(F)F)n2)cc1F)NC(=O)[C@@H](NC(=O)OC)C(C)(C)C(F)(F)F)OC(=O)CC(C)(C)c1c(CC(=O)N[C@@H](CC(C)C)C(=O)O)cc(C)cc1OP(=O)(O)O)C(C)(C)C(F)(F)F` [Example 99] are 6.43, 1928.8 nM, 447 min and 1880 µg/mL (≈ 1180 µM).
`COC(=O)N[C@H](C(=O)N[C@@H](Cc1ccc(C#Cc2cnc(N3CC4CCC(C3)N4C3COC3)nc2)cc1)[C@H](CN(Cc1c(F)cc(-c2ccn(C(F)F)n2)cc1F)NC(=O)[C@@H](NC(=O)OC)C(C)(C)C(F)(F)F)OC(=O)CC(C)(C)c1c(CC(=O)NCCOP(=O)(O)O)cc(C)cc1OP(=O)(O)O)C(C)(C)C(F)(F)F` [Example 100, (5S,10S,11S,14S)-8-(4-(1-(difluoromethyl)-1H-pyrazol-3-yl)-2,6-difluorobenzyl)-11-(4-((2-(8-(oxetan-3-yl)-3,8-diazabicyclo[3.2.1]octan-3-yl)pyrimidin-5-yl)ethynyl)benzyl)-3,6,13,16-tetraoxo-5,14-bis(1,1,1-trifluoro-2-methylpropan-2-yl)-2,17-dioxa-4,7,8,12,15-pentaazaoctadecan-10-yl 3-methyl-3-(4-methyl-2-(2-oxo-2-((2-(phosphonooxy)ethyl)amino)ethyl)-6-(phosphonooxy)phenyl)butanoate] gave a pEC50 in data set [1] of 7.37. Moreover, the “[Compound]” value in data set [2] is on record as 1103.4 nM. In data set [3], the half-life at 2 μM is 313 min. For the same compound, in data set [4], the solubility at 2 h turned out to be 4450 µg/mL (≈ 2770 µM).
For `COC(=O)N[C@H](C(=O)N[C@@H](Cc1ccc(C#Cc2cnc(N3CC4CCC(C3)N4C3COC3)nc2)cc1)[C@H](CN(Cc1c(F)cc(-c2ccn(C(F)F)n2)cc1F)NC(=O)[C@@H](NC(=O)OC)C(C)(C)C(F)(F)F)OC(=O)CC(C)(C)c1c(CC(=O)N[C@H]2C[C@H](C(=O)O)C2)cc(C)cc1OP(=O)(O)O)C(C)(C)C(F)(F)F` [Example 101], in data set [1], the pEC50 was 7.22. The “[Compound]” value in data set [2] was determined as 1688.4 nM. In addition, the half-life at 2 μM in data set [3] came out at 485 min. In data set [4], the solubility at 2 h was found to be 1520 µg/mL (≈ 964 µM).
The like results for `COC(=O)N[C@H](C(=O)N[C@@H](Cc1ccc(C#Cc2cnc(N3CC4CCC(C3)N4C3COC3)nc2)cc1)[C@H](CN(Cc1c(F)cc(-c2ccn(C(F)F)n2)cc1F)NC(=O)[C@@H](NC(=O)OC)C(C)(C)C(F)(F)F)OC(=O)CC(C)(C)c1c(CC(=O)N[C@H]2C[C@@H](C(=O)O)C2)cc(C)cc1OP(=O)(O)O)C(C)(C)C(F)(F)F` [Example 102] were, in that order, 7.27, 1966.3 nM, 467 min and 2860 µg/mL (≈ 1810 µM).
On the same counts, the results for `COC(=O)N[C@H](C(=O)N[C@@H](Cc1ccc(C#Cc2cnc(N3CC4CCC(C3)N4C3COC3)nc2)cc1)[C@H](CN(Cc1c(F)cc(-c2ccn(C(F)F)n2)cc1F)NC(=O)[C@@H](NC(=O)OC)C(C)(C)C(F)(F)F)OC(=O)CC(C)(C)c1c(CC(=O)NCC(C)(C)C(=O)O)cc(C)cc1OP(=O)(O)O)C(C)(C)C(F)(F)F` [Example 103] are 6.88, 1589 nM, 331 min and 80 µg/mL (≈ 50.5 µM).
On the same counts, the results for `COC(=O)N[C@H](C(=O)N[C@@H](Cc1ccc(C#Cc2cnc(N3CC4CCC(C3)N4C3COC3)nc2)cc1)[C@H](CN(Cc1c(F)cc(-c2ccn(C(F)F)n2)cc1F)NC(=O)[C@@H](NC(=O)OC)C(C)(C)C(F)(F)F)OC(=O)CC(C)(C)c1c(CC(=O)N(CC(=O)O)CC(=O)O)cc(C)cc1OP(=O)(O)O)C(C)(C)C(F)(F)F` [Example 106] are 6.12, 1588.2 nM, 271 min and 3920 µg/mL (≈ 2450 µM).
